Target: T1, HCV polymerase (NS5B570n-Con1) (Hepatitis C virus genotype 1b, UniProt Q9WMX2)
T1 construct: a 21 amino acid C-terminal deletion of full-length HCV polymerase; made in house; host or cells: E. coli BL21(DE3) pLysS, plasmid pET17b
Assay: biochemical
Set-up: species or system HCV Con1 strain
Procedure: The enzymatic activity of HCV polymerase (NS5B570n-Con1) was measured as the incorporation of radiolabeled nucleotide monophosphates into acid insoluble RNA products. Unincorporated radiolabeled substrate was removed by filtration and scintillant was added to the washed and dried filter plate containing radiolabeled RNA product. The amount of RNA product generated by NS5B570n-Con1 at the end of the reaction was directly proportional to the amount of light emitted by the scintillant.
The HCV polymerase used in the enzymatic activity assay is a 21 amino acid C-terminal deletion of full-length HCV polymerase derived from HCV Con1 strain, genotype 1b (GenBank accession number AJ242654) (NS5B570n-Con1). The NS5B570n-Con1 was sub-cloned downstream to the T7 promoter of the plasmid expression construct pET17b and transformed into E. coli strain BL21(DE3) pLysS for protein expression. A single colony was used to start an innoculum for a 10 L culture in LB media supplemented with 100 μg/mL ampicillin at 37° C. Protein expression was induced by the addition of 0.25 mM isopropyl-β-D-thiogalactopyranoside (IPTG) when the optical density of the culture at […] was 0.8. Induction of protein expression was carried out at 30° C. for 16 h after which the cells were harvested by centrifugation. NS5B570n-Con1 was purified to homogeneity using a three-column purification protocol including subsequent column chromatography on Ni-NTA, SP-Sepharose HP and Superdex 75 resins.
Enzymatic reactions in the presence of cIRES RNA template (see section [0300]) contained 20 nM cIRES RNA, 20 nM NS5B570n-Con1 enzyme, 0.5 μCi of tritiated UTP (Perkin Elmer catalog no. TRK-412; specific activity: 30 to 60 Ci/mmol), 1 μM each ATP, CTP, and GTP, 40 mM Tris-HCl pH 8.0, 40 mM NaCl, 4 mM DTT (dithiothreitol), 4 mM MgCl2, 5 μl of compound serial diluted in DMSO, and nuclease-free water to a final reaction volume of 50 μl. Enzymatic reactions in the presence of 20 nM cIRES template, 20 nM NS5B570n-Con1 enzyme, 1 μCi of tritiated UTP (Perkin Elmer catalog no. TRK-412; specific activity: 30 to 60 Ci/mmol), 40 mM Tris-HCl pH 8.0, 40 mM NaCl, 4 mM DTT (dithiothreitol), 4 mM MgCl2, 5 μl of compound serial diluted in DMSO, and nuclease-free water to a final reaction volume of 50 μl. Reaction mixtures were assembled in 96-well filter plates (cat #MADVNOB, Millipore Co.) and incubated for 2 h at 30° C. Reactions were stopped by addition of 10% final (v/v) trichloroacetic acid and incubated for 40 min at 4° C. Reactions were filtered, washed with 8 reaction volumes of 10% (v/v) trichloroacetic acetic acid, 4 reaction volumes of 70% (v/v) ethanol, air dried, and 25 μl of scintillant (Microscint 20, Perkin-Elmer) was added to each reaction well.
Two RNA templates can be used to assay compounds described herein. The cIRES RNA template is 377 nucleotide long and consisting of a partial complementary sequence (36 nucleotides) of the core protein, followed by 341 nucleotide of the complementary sequence of the internal ribosome entry site. The poly A RNA template (GE Amersham catalog number 27-4110) was a homopolymeric RNA pre-annealed to a oligo(rU)16 primer at a molar ratio of 3-to-1 (primer-template). The cIRES template was used in the assay unless otherwise noted.
The amount of light emitted from the scintillant was converted to counts per minute (CPM) on a Topcount® plate reader (Perkin-Elmer, Energy Range: Low, Efficiency Mode Normal, Count Time: 1 min, Background Subtract: none, Cross talk reduction: Off).
Data was analyzed in Excel® (Microsoft®) and ActivityBase® (Idbs®). The reaction in the absence of enzyme was used to determine the background signal, which was subtracted from the enzymatic reactions. […] All data was expressed as a percentage of the positive control. The compound concentration at which the enzyme-catalyzed rate of RNA synthesis was reduced by 50% (IC50) was calculated by fitting

Compound | IC50
CC(C)(C)c1cc(-c2ccc[nH]c2=O)cc2c(C(=O)N3CCCC(F)(CNS(C)(=O)=O)C3)coc12 (centres unmarked) [Compound 124, N-{1-[7-tert-Butyl-5-(2-oxo-1,2-dihydro-pyridin-3-yl)-benzofuran-3-carbonyl]-3-fluoro-piperidin-3-ylmethyl}-methanesulfonamide] | 6 nM
CC(C)(C)c1cc(-c2ccc[nH]c2=O)cc2c(C(=O)N3CCCCC3)coc12 [Compound I-13] | 48 nM
CC(C)(C)c1cc(-c2ccc[nH]c2=O)cc2c(C(=O)N3CCCC3)coc12 [Compound I-51] | 12 nM
CC(C)(C)OC(=O)N[C@H]1CCCN(C(=O)c2coc3c(C(C)(C)C)cc(-c4ccc[nH]c4=O)cc23)C1 [Compound I-40] | 1410 nM
CC(C)(C)c1cc(-c2ccc[nH]c2=O)cc2c(C(=O)N3CCCC(O)C3)coc12 (centres unmarked) [Compound I-27] | 186 nM
CC(=O)N1CCN(C(=O)c2coc3c(C(C)(C)C)cc(-c4ccc[nH]c4=O)cc23)CC1 [Compound I-52] | 1250 nM
CC(C)CNC(=O)c1coc2c(C(C)(C)C)cc(-c3ccc[nH]c3=O)cc12 [Compound I-10] | 404 nM
CC(C)(C)c1cc(-c2ccc[nH]c2=O)cc2c(C(=O)Nc3ccccc3)coc12 [Compound I-23] | 425 nM
CN(C)[C@@H]1CCN(C(=O)c2coc3c(C(C)(C)C)cc(-c4ccc[nH]c4=O)cc23)C1 [Compound I-67] | 889 nM
CC(C)(C)c1cc(-c2ccc[nH]c2=O)cc2c(C(=O)N3CCC[C@@H](CNS(C)(=O)=O)C3)coc12 [Compound I-101] | 9 nM
CC(C)(C)c1cc(-c2ccc[nH]c2=O)cc2c(C(=O)NC3(CO)CCCC3)coc12 [Compound I-18] | 4800 nM
CC(C)CN(C)C(=O)c1coc2c(C(C)(C)C)cc(-c3ccc[nH]c3=O)cc12 [Compound I-11] | 475 nM
CC(=O)NC[C@H]1CCN(C(=O)c2coc3c(C(C)(C)C)cc(-c4ccc[nH]c4=O)cc23)C1 [Compound I-75] | 197 nM
CC(C)(C)c1cc(-c2ccc[nH]c2=O)cc2c(-c3cccc(O)c3)coc12 [Compound I-34] | 24 nM
COC(=O)[C@@H]1C[C@@H](O)CN1C(=O)c1coc2c(C(C)(C)C)cc(-c3ccc[nH]c3=O)cc12 [Compound I-63] | 1610 nM
CC(C)(C)c1cc(-c2ccc[nH]c2=O)cc2c(C(=O)N3CCC(O)C3)coc12 (centres unmarked) [Compound I-65] | 126 nM
CNC(=O)c1coc2c(C(C)(C)C)cc(-c3ccc[nH]c3=O)cc12 [Compound I-22] | 770 nM
CC(C)(C)c1cc(-c2ccc[nH]c2=O)cc2c(C(=O)N3CCCC(CNS(C)(=O)=O)C3)coc12 (centres unmarked) [Compound I-90] | 6 nM
CN(C)[C@H]1CCN(C(=O)c2coc3c(C(C)(C)C)cc(-c4ccc[nH]c4=O)cc23)C1 [Compound I-53] | 454 nM
CC(C)(C)OC(=O)NC1CCN(C(=O)c2coc3c(C(C)(C)C)cc(-c4ccc[nH]c4=O)cc23)CC1 [Compound I-39] | 4370 nM
CC(C)(C)c1cc(-c2ccc[nH]c2=O)cc2c(C(=O)N3CCC(C(N)=O)CC3)coc12 [Compound I-58] | 282 nM
CC(C)(C)c1cc(-c2ccc[nH]c2=O)cc2c(C(=O)N3CCC(O)(C(N)=O)CC3)coc12 [Compound I-64] | 97 nM

Compound | IC50
CC(C)(C)c1cc(-c2ccc[nH]c2=O)cc2c(C(=O)N3CCCC(C(N)=O)C3)coc12 (centres unmarked) [Compound I-61] | 66 nM
CC(C)(C)c1cc(-c2ccc[nH]c2=O)cc2c(C(=O)N3CCOC(CNS(C)(=O)=O)C3)csc12 (centres unmarked) [Compound 112, N-{4-[7-tert-Butyl-5-(2-oxo-1,2-dihydro-pyridin-3-yl)-benzo[b]thiophene-3-carbonyl]-morpholin-2-ylmethyl}-methanesulfonamide] | 4 nM
CC(C)(C)c1cc(-c2ccc[nH]c2=O)cc2c(CO)coc12 [Compound I-8] | 515 nM
CC(C)(C)c1cc(-c2ncc[nH]c2=O)cc2c(C(=O)N3CCOC(CNS(C)(=O)=O)C3)coc12 (centres unmarked) [Compound 100, N-{4-[7-tert-Butyl-5-(3-oxo-3,4-dihydro-pyrazin-2-yl)-benzofuran-3-carbonyl]-morpholin-2-ylmethyl}-methanesulfonamide] | 28 nM
CC(C)(C)OC(=O)NCC1CCN(C(=O)c2coc3c(C(C)(C)C)cc(-c4ccc[nH]c4=O)cc23)C1 (centres unmarked) [Compound I-45] | 76 nM
CC(C)(C)c1cc(-c2ccc[nH]c2=O)cc2c(C(=O)N3CCOCC3)coc12 [Compound I-7] | 142 nM
CCOC(=O)c1coc2c(C(C)(C)C)cc(-c3ccc[nH]c3=O)cc12 [Compound I-3, 7-tert-butyl-5-(2-oxo-1,2-dihydro-pyridin-3-yl)-benzofuran-3-carboxylic acid ethyl ester] | 258 nM
COc1cccc(C(=O)c2coc3c(C(C)(C)C)cc(-c4ccc[nH]c4=O)cc23)c1 [Compound I-30, 3-[7-tert-Butyl-3-(3-methoxy-benzoyl)-benzofuran-5-yl]-1H-pyridin-2-one] | 329 nM
CC(C)(C)c1cc(-c2ccc[nH]c2=O)cc2c(C(=O)N3CCC(NC(=O)C(F)(F)F)C3)coc12 (centres unmarked) [Compound I-60] | 51 nM
CC(C)(C)c1cc(-c2cc(F)c[nH]c2=O)cc2c(-c3ccc(CNS(C)(=O)=O)cc3)coc12 [Compound I-74] | 37 nM
CCNC1(C(N)=O)CCN(C(=O)c2coc3c(C(C)(C)C)cc(-c4ccc[nH]c4=O)cc23)CC1 [Compound I-66] | 134 nM
CC(C)(C)c1cc(-c2ccc[nH]c2=O)cc2c(C(=O)O)coc12 [Compound I-4, 7-tert-butyl-5-(2-oxo-1,2-dihydro-pyridin-3-yl)-benzofuran-3-carboxylic acid] | 381 nM
CC(C)(C)c1cc(-c2ccc[nH]c2=O)cc2c(C(=O)N3CCC(F)(F)CC3)coc12 [Compound I-68] | 597 nM
CC(C)(C)OC(=O)N[C@@H]1CCCN(C(=O)c2coc3c(C(C)(C)C)cc(-c4ccc[nH]c4=O)cc23)C1 [Compound I-38] | 132 nM
Cc1ccsc1C(=O)c1coc2c(C(C)(C)C)cc(-c3ccc[nH]c3=O)cc12 [Compound I-31] | 69 nM
CC(C)(C)c1cc(-c2ccc[nH]c2=O)cc2c(C(=O)N3CCCC(CO)C3)coc12 (centres unmarked) [Compound I-14] | 66 nM
CC(C)(C)c1cc(-c2ccc[nH]c2=O)cc2c(C(=O)N3CCC(O)CC3)coc12 [Compound I-12] | 63 nM
CC(C)(C)c1cc(-c2ccc[nH]c2=O)cc2c(C(=O)N3CCCC(CCS(C)(=O)=O)C3)coc12 (centres unmarked) [Compound 132, 3-{7-tert-Butyl-3-[3-(2-methanesulfonyl-ethyl)-piperidine-1-carbonyl]-benzofuran-5-yl}-1H-pyridin-2-one] | 29 nM
CCN(CCOC)C(=O)c1coc2c(C(C)(C)C)cc(-c3ccc[nH]c3=O)cc12 [Compound I-25] | 1330 nM
CC(C)(C)c1cc(-c2ccc[nH]c2=O)cc2c(C(=O)N3CCC(CO)C3)coc12 (centres unmarked) [Compound I-70] | 53 nM
CC(C)(C)c1cc(-c2ccc[nH]c2=O)cc2c(C(=O)N3CC[C@@H](CNS(C)(=O)=O)C3)coc12 [Compound I-73, N-{(R)-1-[7-tert-Butyl-5-(2-oxo-1,2-dihydro-pyridin-3-yl)-benzofuran-3-carbonyl]-pyrrolidin-3-ylmethyl}-methanesulfonamide] | 21 nM
CC(C)(C)c1cc(-c2ccc[nH]c2=O)cc2c(-c3cccc(C#N)c3)coc12 [Compound I-32] | 38 nM

Source: US8067442B2, “Heterocyclic antiviral compounds” (Roche Palo Alto LLC, priority 2008, dated 2011)
